Reference: patent US20250382308A1, “COMPOUNDS ACTIVE TOWARDS BROMODOMAINS” (NUEVOLUTION A/S, priority 2022, published 2025)

How the values were obtained:
[1] = target: first bromodomain of BRD4 (Homo sapiens (Human), UniProt O60885); assay: Bromoscan binding assay BRD4 (1)
Experimental: (§1) Compounds were assayed for binding affinity using bromoscan assays and a phosphodiesterase three assay.
(§2) Bromoscan assays were run by DiscoveRx Corporation. The relevant assay names are BRD4 (1) for the first bromodomain of BRD4 and BRD4 (2) for the second bromodomain of BRD4. Further Bromoscan assays covering other bromodomains may be employed to establish the selectivity profile of a compound of interest. To run the Bromoscan assay, a T7 phage strain displaying the relevant bromodomain was grown in parallel in 24-well blocks in an E. coli host derived from the BL21 strain. E. coli were grown to log-phase and infected with T7 phage from a frozen stock (multiplicity of infection=0.4) and incubated with shaking at 32° C. until lysis (90-150 minutes). The lysates were centrifuged (5,000×g) and filtered (0.2 μm) to remove cell debris. […] The liganded beads were blocked with excess biotin and washed with blocking buffer (SeaBlock (Pierce), 1% BSA (bovine serum albumin), 0.05% Tween 20, 1 mM DTT (dithiothreitol)) to remove unbound ligand and to reduce non-specific phage binding. […] Test compounds were prepared as 1000× stocks in 100% DMSO and subsequently diluted 1:10 in monoethylene glycol (MEG) to create stocks at 100× the screening concentration (resulting stock solution is 10% DMSO/90% MEG). The compounds were then diluted directly into the assays such that the final concentration of DMSO and MEG were 0.1% and 0.9%, respectively. All reactions were performed in polystyrene 96-well plates in a final volume of 0.135 ml. […] The bromodomain concentration in the eluates was measured by qPCR (quantitative real-time polymerase chain reaction). Binding constants (Kds) were calculated with a standard dose-response curve using the Hill equation: Response=Blackground+((Signal-Background)/(1+Kd^Hill Slope/Dose^Hill Slope)). The Hill Slope was set to −1. Curves were fitted using a non-linear least square fit with the Levenberg-Marquardt algorithm.

[2] = target: second bromodomain of BRD4 (Homo sapiens (Human), UniProt O60885); assay: Bromoscan binding assay BRD4 (2); details: geometric mean where multiple measurements have been made
Experimental: as §1, §2

[3] = target: human recombinant phosphodiesterase (PDE3A) (Homo sapiens (Human), UniProt Q14432); assay: Radiometric PDE3A assay; format: biochemical; details: [3H]-cAMP hydrolysis, 20 minutes at 30° C.
Chain of human recombinant phosphodiesterase (PDE3A) (Q14432 whole entry): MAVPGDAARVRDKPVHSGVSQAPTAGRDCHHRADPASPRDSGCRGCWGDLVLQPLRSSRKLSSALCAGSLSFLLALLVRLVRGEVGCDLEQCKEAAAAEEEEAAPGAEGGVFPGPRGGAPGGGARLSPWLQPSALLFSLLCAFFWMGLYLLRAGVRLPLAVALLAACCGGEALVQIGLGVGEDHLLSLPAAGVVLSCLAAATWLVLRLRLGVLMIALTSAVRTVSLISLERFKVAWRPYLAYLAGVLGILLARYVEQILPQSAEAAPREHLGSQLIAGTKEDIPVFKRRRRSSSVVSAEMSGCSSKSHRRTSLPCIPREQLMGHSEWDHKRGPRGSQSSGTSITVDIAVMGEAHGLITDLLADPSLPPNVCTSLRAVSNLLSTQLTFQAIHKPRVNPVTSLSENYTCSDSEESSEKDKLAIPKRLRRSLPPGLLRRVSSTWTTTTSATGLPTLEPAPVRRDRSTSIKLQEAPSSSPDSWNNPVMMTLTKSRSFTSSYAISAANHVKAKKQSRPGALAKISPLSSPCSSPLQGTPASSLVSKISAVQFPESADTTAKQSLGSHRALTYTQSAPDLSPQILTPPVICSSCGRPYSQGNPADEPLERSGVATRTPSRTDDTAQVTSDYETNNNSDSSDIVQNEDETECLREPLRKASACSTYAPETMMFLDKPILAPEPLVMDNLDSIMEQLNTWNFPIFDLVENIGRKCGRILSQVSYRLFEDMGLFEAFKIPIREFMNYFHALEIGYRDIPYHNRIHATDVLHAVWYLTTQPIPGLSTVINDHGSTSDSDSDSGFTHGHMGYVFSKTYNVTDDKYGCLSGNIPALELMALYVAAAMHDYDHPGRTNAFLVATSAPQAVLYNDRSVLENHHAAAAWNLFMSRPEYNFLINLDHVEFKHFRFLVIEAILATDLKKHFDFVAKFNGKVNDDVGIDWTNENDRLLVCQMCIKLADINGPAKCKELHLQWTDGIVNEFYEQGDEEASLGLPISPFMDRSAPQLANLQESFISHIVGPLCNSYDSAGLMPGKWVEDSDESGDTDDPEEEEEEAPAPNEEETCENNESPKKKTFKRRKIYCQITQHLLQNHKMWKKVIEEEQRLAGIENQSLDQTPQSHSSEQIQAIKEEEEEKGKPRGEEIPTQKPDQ
Experimental: Partially purified human recombinant phosphodiesterase (PDE3A) was obtained by cloning cDNA and expressing in S. frugiperda insect cells using a baculovirus expression system. Cells were harvested from culture by centrifuging at 400×g for 5 minutes. Cell pellet was resuspended in 20 ml of RIPA Buffer (150 mM NaCl, 10 mM Tris, 0.1% NP-40, pH8.3), 4 ml/200 ml of culture, plus protease inhibitors (100 μl/10 ml) and incubated on ice for 10-20 minutes then spun at 3500×g for 10 minutes at 4° C. Supernatant was kept and the pellet thrown away. Tritium-labeled cyclic AMP was hydrolysed to 5′-AMP by PDE3A. The 5′-AMP was then further hydrolysed to adenosine by nucleotidase in snake venom. An anion-exchange resin binds all charged nucleotides and leaves [3H]adenosine as the only labeled compound to be counted by liquid scintillation. The radiometric assay method is a modification of the two-step method of Thompson and Appleman [Biochemistry 10; 311-316; 1971], adapted for a 96 well plate format. 50 μl of diluted PDE3A was incubated with 50 μl of [3H]-CAMP (specific activity 25 Ci/mmol) and 11 μl of 50% DMSO (or compound dilution) for 20 minutes at 30° C. The enzyme was diluted in 20 mM Tris HCl pH7.4 (×2.2 final concentration) and [3H]-cAMP were diluted in 10 mM MgCl2, 40 mM Tris HCl pH 7.4 (×2.2 final concentration). Reactions were carried out in Greiner 96 deep well 1 ml master-block. The plates were centrifuged for 9 seconds before the 20 minutes incubation. The reaction was terminated by denaturing the PDE enzyme (at 70° C. for 2 minutes, plates were left to cool on ice for 10 minutes) after which 25 μl snake venom nucleotidase (225 ug/ml final concentration) was added and incubated for 10 minutes (at 30° C.), plates were centrifuged for 9 seconds before incubation. After incubation 200 μl Dowex resin (1×8, 200-400 mesh) was added and the plate was shaken for 20 minutes then centrifuged for 3 minutes at 1000×g. 50 μl of supernatant was removed and added to 200 μl of MicroScint-20 in white plates (Greiner 96-well Optiplate) and shaken for 30 minutes before reading on Perkin Elmer TopCount Scintillation Counter. GraphPad Prism™ was used to calculate the IC50 values using a sigmoidal dose response (variable slope). The analysis measures 4 parameters including the best fit values for the bottom and top fit of the curve, the hill slope value and the IC50 value.

SMILES: COc1cc(NC(=O)c2cc3c(nc2N2CC[C@H](F)C2)COC3)cc2c(C)cc(=O)[nH]c12 [Example 41, 2-[(3S)-3-fluoropyrrolidin-1-yl]-N-(8-methoxy-4-methyl-2-oxo-1H-quinolin-6-yl)-5,7-dihydrofuro[3,4-b]pyridine-3-carboxamide]
- Kd ([1]; Bromoscan, geometric mean where multiple measurements have been made): 0.092 µM
- Selectivity BRD4(2)/BRD4(1) ([1]; ratio BRD4(2) Kd / BRD4(1) Kd): >109
- Kd [2]: > 10 µM
- IC50 [3]: > 10 µM
